Reference: patent US11401264B2, “Heterocyclic compound” (Orizuru Therapeutics, Inc., priority 2018, dated 2022)

System: cardiomyocytes from human iPS cell lines 409B2
Assay: Experimental Example 4: membrane potential analysis (FluoVolt), beats per minute
Assay type: cell-based
Settings: treated from 25th day, measured on 28th day; n = 3; DMSO control 70.7
Description: For analysis of electrophysiological function of cardiomyocytes, humans iPS cell lines 409B2 (prepared from episomal vector (pCXLE-hOCT3/4-shp53-F, pCXLE-hSK, pCXLE-hUL) using HDF1388 purchased from Cell Applications, Inc (reference literature; Okita et al., Nat Methods. 8(5):409-12. (2011))) were used.
The maintenance culture of the above-mentioned iPS cell lines was carried out by a conventional method (Takahashi K, et al. Cell. 131: 861-72, 2007 and Nakagawa M, et al. Nat Biotechnol. 26: 101-6, 2008).
For differentiation induction into cardiomyocytes, the iPS cell lines were treated with CTK solution (ReproCELL) for 2 minutes, the solution was removed, and then the iPS cell lines were treated with Accumax (Innovative Cell Technologies) for 5 minutes, and the cells were dissociated into the single cell by pipetting. The cells were collected by centrifugation (1,000 rpm, 5 min), and seeded on low attachment 96 well dish (Corning) by 5000 cells/70 μL/well, and cultured in a medium prepared by adding 1% L-glutamine, transferrin 150 μg/mL, ascorbic acid 50 μg/mL (Sigma), monothioglycerol 4×10^−4 M, 10 μM Rock inhibitor (Y-27632), 2 ng/mL BMP4 (R&D) and 0.5% Matrigel (Growth Factor Reduced) to StemPro-34 SFM (ThermoFisher) at 37° C., under 5% oxygen condition to form embryoid bodies (0 day). […]

Question: With `O=C1c2ccc(N3CCOCC3)cc2CN1c1ccc2[nH]c(-c3ccc(Br)cc3)nc2c1` [Example 8, 2-(2-(4-bromophenyl)-1H-benzimidazol-5-yl)-5-(morpholin-4-yl)isoindolin-1-one] as the molecule, how does the “beats (mean)” value read?
Answer: Its value is 32.0 beats per minute.
